Data set [1] is described as follows: Solubility (qualitative remarks). It counts as physicochemical. The conditions noted are these: NKA activity assay.
Data set [2] deals with T1, Na+/K+-ATPase (NKA) (Sus scrofa, UniProt P05024).
T1 construct: The NKA was prepared from porcine kidney outer medulla; from tissue; host or cells: porcine kidney outer medulla
The experiment in a line: Ouabain-sensitive ATPase activity of NKA (Baginsky assay). It counts as biochemical, porcine. Conditions: for IC50: ouabain-sensitive ATPase activity, NKA from porcine kidney, 3 mM ATP, read-out: IC50 for inhibition of the NKA activity; for n, Hill coefficient: fit of NKA inhibition curve to logistic function. On the procedure:
The NKA was prepared from porcine kidney outer medulla using the method of Jorgensen and Klodos with some modifications (Jørgensen, [1988]; Klodos et al., [2002]; Kubala et al., [2014]). An isolated enzyme was pipetted into small aliquots and stored at −20°C in ISE buffer (25 mM imidazole, 250 mM sucrose, 1 mM EDTA, pH 7.4) containing SDS detergent. The molar concentration of isolated NKA was estimated using the Bradford method with consideration of MW(α + β) = 165,000 Da. The protein purity >90% was estimated from SDS-PAGE (Figure 2).
The measurements of NKA activity were performed using the Baginsky assay (Kubala et al., [2014]). The assay was performed in microwell plates in 4 replicates for each point and automated in the pipetting station Freedom EVO (Tecan, Switzerland).
(§1) The reaction buffer was composed of 325 mM NaCl, 50 mM KCl, 7.5 mM MgCl2, and 75 mM imidazole, pH 7.2. In the experiments where the K^+-dependence was estimated, the KCl concentration is ranging from 0 to 100 mM. The NKA (0.1 mg/mL) isolated from porcine kidney was mixed with reaction buffer without ATP. All inhibitors were solubilized in methanol immediately before the measurement and then premixed with the reaction buffer to the required concentration. Subsequently, 10 μL of inhibitor solution was added into 20 μL of enzyme solution and incubated for 2 min. In the control sample, only 10 μL of reaction buffer without inhibitor was added including corresponding amount of methanol. The reaction was started by the addition of ATP solution (20 μL, 7.5 mM in the stock, the final concentration in the reaction was 3 mM). The reaction proceeded for 6 min at room temperature and then was stopped by addition of 75 μL of staining solution, which was composed of 160 mM ascorbic acid, 3.7% (v/v) acetic acid, 3% (w/v) SDS, and 0.5% ammonium molybdate. The staining reaction was stopped after another 8 min by adding 125 μL of solution composed of 0.9% (w/v) bismuth citrate, 0.9% (w/v) sodium citrate and 3.7% HCl.
The Baginsky method detects a product of ATP hydrolysis, inorganic phosphate, which interacts with ammonium molybdate. The reaction results in a color change, which can be monitored as a change of absorbance at 710 nm, and was measured using microplate reader Synergy Mx (BioTek, USA). The calibration line was determined using KH2PO4 solutions, in […] concentration range.
(§2) The specific NKA activity is standardly estimated using the treatment by ouabain, which serves as a specific inhibitor of NKA. The ATPase activity decreases to less than 10% in the presence of 10 mM ouabain. This residual activity in the presence of ouabain was subtracted from the total estimated ATPase activity in ouabain-untreated samples, and all data are presented as the ouabain-sensitive ATPase activity. The IC50 values were obtained from fitting the data to the logistic function.

The target of data set [3] is T1, Na+/K+-ATPase (NKA). The experiment in a line: K+-dependence of NKA activity (K+-dependent activation). It counts as biochemical, porcine. On the procedure:
as §1
(§3) We have tested influence of these three species on the ouabain inhibition and K^+-dependence of NKA activation. None of the species substantially influenced the IC50 for ouabain or the K^+/ouabain antagonism (Figure 5). The NKA activity is K^+-dependent and it increased with increasing concentration of potassium with K0.5(K^+) = 4.2 ± 0.6 mM.

Data set [4] has as its target T1, Na+/K+-ATPase (NKA). Briefly: K+/ouabain antagonism: ouabain inhibition of NKA activity with or without flavonolignan. The data set is classed as biochemical, porcine. Conditions: for K0.5(ouabain): in the presence of 40 μM flavonolignan; for IC50: K0.5(ouabain), no flavonolignan (row None). On the procedure: as §1, §2, §3
The target of data set [5] is T2, large cytoplasmic segment C45 of NKA (C45 loop, residues L354-I777) (Mus musculus, UniProt Q8VDN2).
T2 construct: (His)6-tag (N); made in house; host or cells: E. coli BL21
Briefly: Fluorescence spectroscopy of interaction with isolated large cytoplasmic segment C45. It counts as binding. The conditions noted are these: 5 μM species; for Fluorescence intensity increase in the presence of C45: 5 μM C45, pH 7.4, excitation 380 nm. On the procedure:
The large cytoplasmic segment connecting the transmembrane helices 4 and 5 (C45 loop, residues L354-I777 of the mouse brain sequence) with a (His)6-tag at the N-terminus was expressed in E. coli BL21 (Promega, USA) and purified using a Co^2+-based affinity resin (Clontech, USA) as described previously (Grycova et al., [2009]). Immediately after elution, the protein was dialyzed into 20 mM Tris, 140 mM NaCl, pH 7.4 buffer and stored at −20°C.
Spectroscopic experiments were performed in 20 mM Tris, 140 mM NaCl, pH 7.4 buffer. SCH, DHSCH and DHSD as well as protein C45 were diluted to 5 μM concentration.
Fluorescence emission spectra were measured using Fluorolog-3 (Horiba Scientific, USA). The spectra were scanned with a step of 1 nm, both excitation- and emission bandpass 5 nm and integration time 1 s. For SCH, the excitation was 325 nm and emission was recorded in the 340–600 nm interval, for DHSCH and DHSD, the excitation wavelength was 380 nm and spectra were scanned in the 400–600 nm interval. Signal from pure buffer was subtracted as a background.

Setting [6] is: in the presence of 40 μM flavonolignan.
[7] abbreviates: 40 mM KCl (value in parentheses).

In general, IC50 refers to the midpoint of a concentration-inhibition curve. What is called remaining activity is the activity still measured, relative to the control.

In the case of `COc1cc([C@@H]2[C@H]3CO[C@@]4(O)C(=O)[C@@H]2C=C([C@H]2Oc5cc(O)cc(O)c5C(=O)[C@@H]2O)[C@@H]34)ccc1O` [SD, silydianin], in data set [1], the “Solubility limiting the examined concentration range” value is given as “lower solubility”. The concentration for half-maximal inhibition (IC50) on Na+/K+-ATPase (NKA) [2] was greater than 1000 µM.
As to `COc1cc(C2C3C=C(c4oc5cc(O)cc(O)c5c(=O)c4O)C4C2COC4(O)C3=O)ccc1O` (centres unmarked) [DHSD, dehydrosilydianin], the “Solubility limiting the examined concentration range” value in data set [1] is “lower solubility”. Moreover, on Na+/K+-ATPase (NKA) [3] (setting [6]), the “K0.5(K+) for K+-dependent activation of NKA” value turned out to be 3 ± 2 mM. The “K0.5(ouabain)” value on Na+/K+-ATPase (NKA) [4] (5 mM KCl) came to 3.3 ± 1.4 µM. Moreover, the “K0.5(ouabain)” value on Na+/K+-ATPase (NKA) [4] (setting [7]) is 19 ± 7 µM. In data set [5], the “Fluorescence intensity increase in the presence of C45” value was “three-fold”. Further, at Na+/K+-ATPase (NKA) [2], the “n, Hill coefficient” value turned out to be 0.6 ± 0.1 and the half-inhibitory concentration (IC50) turned out to be 36 ± 14 µM.
In the case of `COc1cc(C2Oc3c(O)cc(-c4oc5cc(O)cc(O)c5c(=O)c4O)cc3C2CO)ccc1O` (centres unmarked) [DHSCH, dehydrosilychristin], the “K0.5(K+) for K+-dependent activation of NKA” value on Na+/K+-ATPase (NKA) [3] (setting [6]) turned out to be 4 ± 1 mM. For the same compound, at Na+/K+-ATPase (NKA) [4] (5 mM KCl), the “K0.5(ouabain)” value stood at 1.5 ± 0.5 µM. At Na+/K+-ATPase (NKA) [4] (setting [7]), the “K0.5(ouabain)” value is 24 ± 6 µM. Also, the “Fluorescence intensity increase in the presence of C45” value in data set [5] is given as “ca. 3 times”. Besides, on Na+/K+-ATPase (NKA) [2], the “n, Hill coefficient” value was 0.8 ± 0.1 and the IC50 turned out to be 38 ± 8 µM.
`O=c1c(O)c(-c2ccc(O)c(O)c2)oc2cc(O)cc(O)c12` [QUE, quercetin]: at Na+/K+-ATPase (NKA) [2], the IC50 is greater than 1000 µM.
For `COc1cc(C2Oc3c(O)cc([C@H]4Oc5cc(O)cc(O)c5C(=O)[C@@H]4O)cc3C2CO)ccc1O` (some centres unmarked) [SCH, silychristin], the “K0.5(K+) for K+-dependent activation of NKA” value at Na+/K+-ATPase (NKA) [3] (setting [6]) is 8 ± 5 mM. In addition, the “K0.5(ouabain)” value on Na+/K+-ATPase (NKA) [4] (5 mM KCl) came out at 4.0 ± 1.7 µM. Moreover, the “K0.5(ouabain)” value on Na+/K+-ATPase (NKA) [4] (setting [7]) was 18 ± 2 µM. The “Fluorescence quantum yield increase in the presence of C45 compared to the free species” value in data set [5] (5 μM C45, pH 7.4) is reported as “more than 1000 times”. In addition, on Na+/K+-ATPase (NKA) [2], the “n, Hill coefficient” value is 0.6 ± 0.1 and the IC50 was found to be 110 ± 40 µM.
Regarding `C[C@@H]1O[C@@H](O[C@H]2C[C@@H](O)[C@]3(CO)[C@H]4[C@H](O)C[C@]5(C)[C@@H](C6=CC(=O)OC6)CC[C@]5(O)[C@@H]4CC[C@]3(O)C2)[C@H](O)[C@H](O)[C@H]1O` [ouabain, reference compound], the “K0.5(K+) for K+-dependent activation of NKA” value on Na+/K+-ATPase (NKA) [3] (in the presence of ouabain) came out at 14.8 ± 0.1 mM. The half-inhibitory concentration (IC50) at Na+/K+-ATPase (NKA) [4] (5 mM KCl) was 2.6 ± 1.3 µM; on Na+/K+-ATPase (NKA) [4] (setting [7]), 23 µM. Further, the remaining activity at 10000 µM on Na+/K+-ATPase (NKA) [2] (read-out: ATPase activity remaining in the presence of ouabain) is less than 10%.
`COc1cc(C2Oc3cc(-c4oc5cc(O)cc(O)c5c(=O)c4O)ccc3OC2CO)ccc1O` (centres unmarked) [DHSB]: the “Solubility limiting the examined concentration range” value in data set [1] is “lower solubility”. Also, on Na+/K+-ATPase (NKA) [2], the “n, Hill coefficient” value was 0.5 ± 0.1 and the IC50 is 900 ± 800 µM.
Regarding `O=C1c2c(O)cc(O)cc2OC(c2ccc(O)c(O)c2)C1O` (centres unmarked) [TAX, taxifolin], at Na+/K+-ATPase (NKA) [2], the IC50 is greater than 1000 µM.
For the compound `COc1cc(C2Oc3cc([C@H]4Oc5cc(O)cc(O)c5C(=O)[C@@H]4O)ccc3OC2CO)ccc1O` (some centres unmarked) [SB, silybin], the “Solubility limiting the examined concentration range” value in data set [1] is on record as “lower solubility”. Also, at Na+/K+-ATPase (NKA) [2], the half-inhibitory concentration (IC50) was greater than 1000 µM.

These data come from publication PMC4812144, “Flavonolignans As a Novel Class of Sodium Pump Inhibitors” (Frontiers in Physiology, 2016).
